system: not given; experiment: not given; conditions: not given

melting point [°C]	Compound
200 to 202	COc1ccc(C2CCOCC2)c2sc(NC(=O)c3ccnc(CN4CCCC4)c3)nc12 [Example 43, N-[4-Methoxy-7-(tetrahydro-pyran-4-yl)-benzothiazol-2-yl]-2-pyrrolidin-1-ylmethyl-isonicotinamide]
192 to 195	COc1ccc(C2CCCCC2)c2sc(NC(=O)c3ccc(F)cc3)nc12 [Example 23, N-(7-Cyclohexyl-4-methoxy-benzothiazol-2-yl)-4-fluoro-benzamide]
268 to 275	COc1ccc(C2=CCNCC2)c2sc(NC(=O)c3ccc(F)cc3)nc12.Cl
164 to 173	COC(=O)Nc1nc2c(OC)ccc(C3=CCCCC3)c2s1 [Example 22, (7-Cyclohex-1-enyl-4-methoxy-benzothiazol-2-yl)-carbamic acid methyl ester]
314 to 315	COc1ccc(C2CCNCC2)c2sc(NC(=O)N3CCOCC3)nc12.Cl
106 to 109	COc1ccc(C2CCOCC2)c2sc(NC(=O)N3CCC(O)CC3)nc12 [Example 45, 4-Hydroxy-piperidine-1-carboxylic acid [4-methoxy-7-(tetrahydro-pyran-4-yl)-benzothiazol-2-yl]-amide]

molecular target: T1, human adenosine A2A receptor (Homo sapiens, UniProt P29274); experiment: [3H]-SCH-58261 binding assay, human adenosine A2A receptor expressed in CHO cell membranes (SPA); conditions: [3H]-SCH-58261 1 nM, Ki by Cheng-Prussoff equation
T1 construct: expressed in transfected cells; host or cells: CHO cells, semliki forest virus expression system; membrane preparation
T1 sequence (P29274 whole entry): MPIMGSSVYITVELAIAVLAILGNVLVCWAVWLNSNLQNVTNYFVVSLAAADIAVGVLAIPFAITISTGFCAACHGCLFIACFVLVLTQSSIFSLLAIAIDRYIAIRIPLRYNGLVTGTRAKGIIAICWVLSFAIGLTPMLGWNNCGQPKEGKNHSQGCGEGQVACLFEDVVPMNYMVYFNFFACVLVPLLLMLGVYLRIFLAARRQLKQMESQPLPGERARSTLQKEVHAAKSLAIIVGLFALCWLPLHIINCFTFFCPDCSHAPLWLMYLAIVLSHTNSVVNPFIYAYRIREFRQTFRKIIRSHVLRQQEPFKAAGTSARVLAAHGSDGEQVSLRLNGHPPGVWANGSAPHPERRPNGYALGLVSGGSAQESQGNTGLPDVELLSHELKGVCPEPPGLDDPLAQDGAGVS
Protocol: Human Adenosine A2A Receptor
The human adenosine A2A receptor was recombinantly expressed in chinese hamster ovary (CHO) cells using the semliki forest virus expression system. Cells were harvested, washed twice by centrifugation, homogenised and again washed by centrifugation. The final washed membrane pellet was suspended in a Tris (50 mM) buffer containing 120 mM NaCl, 5 mM KCl, 2 mM CaCl2 and 10 mM MgCl2 (pH 7.4) (buffer A). The [^3H]-SCH-58261 (Dionisotti et al., 1997, Br J Pharmacol 121, 353; 1 nM) binding assay was carried out in 96-well plates in the presence of 2.5 μg of membrane protein, 0.5 mg of Ysi-poly-1-lysine SPA beads and 0.1 U adenosine deaminase in a final volume of 200 μl of buffer A. Non-specific binding was defined using xanthine amine congener (XAC; 2 μM). Compounds were tested at 10 concentrations from 10 μM-0.3 nM. All assays were conducted in duplicate and repeated at least two times. Assay plates were incubated for 1 hour at room temperature before centrifugation and then bound ligand determined using a Packard Topcount scintillation counter. IC50 values were calculated using a non-linear curve fitting program and Ki values calculated using the Cheng-Prussoff equation.

hA2 (pKi)	Compound
8.80	COc1ccc(C2CCCCC2)c2sc(NC(=O)c3ccnc(CN4CCCC4)c3)nc12 [Example 25, N-(7-Cyclohexyl-4-methoxy-benzothiazol-2-yl)-2-pyrrolidin-1-yl-methyl-isonicotinamide]

same assay, conditions: [3H]-SCH-58261 1 nM, Ki by Cheng-Prussoff equation, read-out: hA2 (pKi) (converted)

Compound	Ki [nM]
COc1ccc(C2CCCCO2)c2sc(NC(=O)c3ccc(F)cc3)nc12 (stereo not shown) [Example 40, 4-Fluoro-N-[4-methoxy-7-(tetrahydro-pyran-2-yl)-benzothiazol-2-yl]-benzamide]	3.39
COc1ccc(C2CCOCC2)c2sc(NC(=O)N3CCOCC3)nc12 [Example 44, Morpholine-4-carboxylic acid [4-methoxy-7-(tetrahydro-pyran-4-yl)-benzothiazol-2-yl]-amide]	1.51
COC(=O)Nc1nc2c(OC)ccc(C3=CCOCC3)c2s1 [Example 1, [7-(3,6-Dihydro-2H-pyran-4-yl)-4-methoxy-benzothiazol-2-yl]-carbamic acid methyl ester]	4.9
COc1ccc(C2=CCN(C(C)=O)CC2)c2sc(NC(=O)c3ccc(F)cc3)nc12 [Example 11, N-[7-(1-Acetyl-1,2,3,6-tetrahydro-pyridin-4-yl)-4-methoxy-benzothiazol-2-yl]-4-fluoro-benzamide]	5.01
COc1ccc(C2CCN(C(C)=O)CC2)c2sc(NC(=O)c3ccc(F)cc3)nc12 [Example 12, N-[7-(1-Acetyl-piperidin-4-yl)-4-methoxy-benzothiazol-2-yl]-4-fluoro-benzamide]	3.16
COc1ccc(C2CCCCC2)c2sc(NC(=O)c3ccc(F)cc3)nc12 [Example 23, N-(7-Cyclohexyl-4-methoxy-benzothiazol-2-yl)-4-fluoro-benzamide]	0.2
COCCN(C)Cc1ccc(C(=O)Nc2nc3c(OC)ccc(C4CCN(C(C)=O)CC4)c3s2)cc1 [Example 18, N-[7-(1-Acetyl-piperidin-4-yl)-4-methoxy-benzothiazol-2-yl]-4-{[(2-methoxy-ethyl)-methylamino]-methyl}-benzamide]	7.94
COC(=O)Nc1nc2c(OC)ccc(C3=CCCCC3)c2s1 [Example 22, (7-Cyclohex-1-enyl-4-methoxy-benzothiazol-2-yl)-carbamic acid methyl ester]	10
COCCN(C)Cc1ccc(C(=O)Nc2nc3c(OC)ccc(C4CCCCC4)c3s2)cc1 [Example 24, N-(7-Cyclohexyl-4-methoxy-benzothiazol-2-yl)-4-{[(2-methoxy-ethyl)-methyl-amino]-methyl}-benzamide]	1.58
COc1ccc(C2CCN(C(C)=O)CC2)c2sc(NC(=O)c3ccc(C)cc3)nc12 [Example 19, N-[7-(1-Acetyl-piperidin-4-yl)-4-methoxy-benzothiazol-2-yl]-4-methyl-benzamide]	3.98
COc1ccc(C2CCCCO2)c2sc(NC(=O)c3ccnc(N4CCOCC4)c3)nc12 (stereo not shown) [Example 42, N-[4-Methoxy-7-(tetrahydro-pyran-2-yl)-benzothiazol-2-yl]-2-morpholin-4-yl-isonicotinamide]	2.04
COc1ccc(C2CCOCC2)c2sc(NC(=O)N3CCC(O)CC3)nc12 [Example 45, 4-Hydroxy-piperidine-1-carboxylic acid [4-methoxy-7-(tetrahydro-pyran-4-yl)-benzothiazol-2-yl]-amide]	1.62

Second part, the compound after the results:

Ki [nM]	Compound
1.82	CCCc1cc(C(=O)Nc2nc3c(OC)ccc(C4CCOCC4)c3s2)ccn1 [Example 34, N-[4-Methoxy-7-(tetrahydro-pyran-4-yl)-benzothiazol-2-yl]-2-propyl-isonicotinamide]
2.82	COc1ccc(C2CCOCC2)c2sc(NC(=O)c3ccnc(C)c3)nc12 [Example 5, N-[4-Methoxy-7-(tetrahydro-pyran-4-yl)-benzothiazol-2-yl]-2-methyl-isonicotinamide]
3.39	COc1ccc(C2CCCCO2)c2sc(NC(=O)c3ccnc(C)c3)nc12 (stereo not shown) [Example 41, N-[4-Methoxy-7-(tetrahydro-pyran-2-yl)-benzothiazol-2-yl]-2-methyl-isonicotinamide]
1.51	COCCN(C)c1cc(C(=O)Nc2nc3c(OC)ccc(C4CCOCC4)c3s2)ccn1 [Example 47, 2-[(2-Methoxy-ethyl)-methyl-amino]-N-[4-methoxy-7-(tetrahydro-pyran-4-yl)-benzothiazol-2-yl]-isonicotinamide]
1.74	COc1ccc(C2CCOCC2)c2sc(NC(=O)c3ccnc(Br)c3)nc12 [Example 4, 2-Bromo-N-[4-methoxy-7-(tetrahydro-pyran-4-yl)-benzothiazol-2-yl]-isonicotinamide]
1.66	CCc1cc(C(=O)Nc2nc3c(OC)ccc(C4CCOCC4)c3s2)ccn1 [Example 33, 2-Ethyl-N-[4-methoxy-7-(tetrahydro-pyran-4-yl)-benzothiazol-2-yl]-isonicotinamide]
2.75	CCOc1cc(C(=O)Nc2nc3c(OC)ccc(C4CCOCC4)c3s2)ccn1 [Example 32, 2-Ethoxy-N-[4-methoxy-7-(tetrahydro-pyran-4-yl)-benzothiazol-2-yl]-isonicotinamide]
0.759	COc1ccc(C2CCOCC2)c2sc(NC(=O)c3ccnc(N4CCOCC4)c3)nc12 [Example 6, N-[4-Methoxy-7-(tetrahydro-pyran-4-yl)-benzothiazol-2-yl]-2-morpholin-4-yl-isonicotinamide]
1.1	COc1ccc(C2CCOCC2)c2sc(NC(=O)c3ccc(CCl)cc3)nc12 [Example 7, 4-Chloromethyl-N-[4-methoxy-7-(tetrahydro-pyran-4-yl)-benzothiazol-2-yl]-benzamide]
1.23	COc1ccc(C2CCOCC2)c2sc(NC(=O)c3ccnc(CN4CCCC4)c3)nc12 [Example 43, N-[4-Methoxy-7-(tetrahydro-pyran-4-yl)-benzothiazol-2-yl]-2-pyrrolidin-1-ylmethyl-isonicotinamide]
3.8	COc1ccc(C2CCCCO2)c2sc(NC(=O)c3ccnc(Br)c3)nc12 (stereo not shown) [Example 39, 2-Bromo-N-[4-methoxy-7-(tetrahydro-pyran-2-yl)-benzothiazol-2-yl]-isonicotinamide]
1.45	COc1cc(C(=O)Nc2nc3c(OC)ccc(C4CCOCC4)c3s2)ccn1 [Example 31, 2-Methoxy-N-[4-methoxy-7-(tetrahydro-pyran-4-yl)-benzothiazol-2-yl]-isonicotinamide]
6.31	COc1ccc(C2CCN(C(C)=O)CC2)c2sc(NC(=O)c3ccnc(C)c3)nc12 [Example 17, N-[7-(1-Acetyl-piperidin-4-yl)-4-methoxy-benzothiazol-2-yl]-2-methyl-isonicotinamide]
1.07	COc1ccc(C2CCOCC2)c2sc(NC(=O)c3ccc(C)nc3)nc12 [Example 28, N-[4-Methoxy-7-(tetrahydro-pyran-4-yl)-benzothiazol-2-yl]-6-methyl-nicotinamide]
11.5	COC(=O)Nc1nc2c(OC)ccc(C3CCOCC3)c2s1 [Example 2, [4-Methoxy-7-(tetrahydro-pyran-4-yl)-benzothiazol-2-yl]-carbamic acid methyl ester]
3.98	COc1cc(C(=O)Nc2nc3c(OC)ccc(C4CCN(C(C)=O)CC4)c3s2)ccn1 [Example 21, N-[7-(1-Acetyl-piperidin-4-yl)-4-methoxy-benzothiazol-2-yl]-2-methoxy-isonicotinamide]
1.41	COc1ccc(C2CCOCC2)c2sc(NC(=O)c3ccc(F)cc3)nc12 [Example 3, 4-Fluoro-N-[4-methoxy-7-(tetrahydro-pyran-4-yl)-benzothiazol-2-yl]-benzamide]
0.871	COCCNc1cc(C(=O)Nc2nc3c(OC)ccc(C4CCOCC4)c3s2)ccn1 [Example 46, 2-(2-Methoxy-ethylamino)-N-[4-methoxy-7-(tetrahydro-pyran-4-yl)-benzothiazol-2-yl]-isonicotinamide]
2.4	COCCN(C)Cc1ccc(C(=O)Nc2nc3c(OC)ccc(C4CCOCC4)c3s2)cc1 [Example 8, 4-{[(2-Methoxy-ethyl)-methyl-amino]-methyl}-N-[4-methoxy-7-(tetrahydro-pyran-4-yl)-benzothiazol-2-yl]-benzamide]
1.17	COc1ccc(C2CCOCC2)c2sc(NC(=O)c3ccnc(C(C)C)c3)nc12 [Example 36, 2-Isopropyl-N-[4-methoxy-7-(tetrahydro-pyran-4-yl)-benzothiazol-2-yl]-isonicotinamide]
2.51	COc1ccc(C2CCN(C(C)=O)CC2)c2sc(NC(=O)c3ccnc(N4CCOCC4)c3)nc12 [Example 20, N-[7-(1-Acetyl-piperidin-4-yl)-4-methoxy-benzothiazol-2-yl]-2-morpholin-4-yl-isonicotinamide]
